Reference: patent US20240058457A1, “BTK DEGRADER” (Newave Pharmaceutical Inc., priority 2020, published 2024)

Biological target: T1, BTK (Homo sapiens, UniProt Q06187)
T1 construct: endogenous in cells; host or cells: Rec-1 cells (ATCC) / Ramos cells
Experiment: BTK HTRF degradation assay
Assay type: cell-based
Details: treatment time 24 h; Cisbio Total-BTK HTRF; Rec-1 / Ramos cells
Method: Rec-1 cells were obtained from American Type Culture Collection and were grown in RPMI-1640 media (ATCC, 30-2001) supplemented with 10% heat-inactivated FBS (Corning Premium Fetal Bovine Serum from Fisher, MT35015CV). Compounds of the present invention were added to 50,000 Ramos cells in round-bottom 96 well plates with a final DMSO concentration of […] and were incubated at 37° C. 5% CO2 for different time. BTK levels were determined using Cisbio Total-BTK HTRF ([…] Time-Resolved Fluorescence) kit (63ADK064PEG) according to manufacturer's protocol. Briefly, cells were incubated in 1× supplied lysis buffer for 30 minutes. In an opaque white low volume 96 well plate (Cisbio, 66PL96005), cell lysate was combined with two different specific BTK antibodies, one conjugated with Eu3+-Cryptate FRET donor and one conjugated with d2 FRET acceptor. Assay controls include wells containing cell lysate with only the Eu3+-Cryptate FRET donor antibody and wells containing both HTRF antibodies and lysis buffer without cells or control lysate provided by Cisbio. HTRF ratio was calculated as (acceptor signal at 665 nm/donor signal at 620 nm)×[…]. Background HTRF levels were determined from the control well containing the donor, but no acceptor, antibody. Background HTRF levels were subtracted from all samples. Readouts were reported as HTRF levels relative to HTRF levels of DMSO-treated cells. Four-parameter non-linear regressions were performed in GraphPad Prism 7.02 to obtain DC50 values.

T1 sequence (Q06187 whole entry): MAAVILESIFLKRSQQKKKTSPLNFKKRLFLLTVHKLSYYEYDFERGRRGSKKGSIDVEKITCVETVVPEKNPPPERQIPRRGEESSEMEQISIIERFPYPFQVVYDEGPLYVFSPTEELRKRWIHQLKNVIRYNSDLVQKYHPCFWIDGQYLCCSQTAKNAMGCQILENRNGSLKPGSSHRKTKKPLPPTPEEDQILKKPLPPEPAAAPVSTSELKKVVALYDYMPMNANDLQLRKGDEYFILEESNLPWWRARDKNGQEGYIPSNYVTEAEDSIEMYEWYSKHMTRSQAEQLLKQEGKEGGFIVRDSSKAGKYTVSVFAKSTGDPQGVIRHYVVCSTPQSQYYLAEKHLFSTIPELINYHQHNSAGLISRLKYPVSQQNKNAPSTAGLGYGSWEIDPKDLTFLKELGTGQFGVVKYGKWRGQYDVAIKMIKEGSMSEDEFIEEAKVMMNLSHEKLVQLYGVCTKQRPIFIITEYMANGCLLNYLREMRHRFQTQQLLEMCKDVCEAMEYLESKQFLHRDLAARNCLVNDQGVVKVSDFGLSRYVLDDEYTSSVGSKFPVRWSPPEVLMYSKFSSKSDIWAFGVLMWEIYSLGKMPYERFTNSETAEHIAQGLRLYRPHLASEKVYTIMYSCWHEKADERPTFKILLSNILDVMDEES

Row | DC50 [nM] | Dmax % [%] | Dmax [%] | Molecule
1 | 3.58 | – | – | C[C@H]1CN([C@H]2CCN3c4ccc5c(c4OC[C@H]3C2)C(=O)N(C2CCC(=O)NC2=O)C5=O)CCN1c1ccc(Nc2cc(-c3ccnc(N4CCn5c(cc6c5CC(C)(C)C6)C4=O)c3CO)cn(C)c2=O)nc1.Cl (stereo partly drawn) [Example 17, hydrochloride]
2 | – | 95 | – | C[C@H]1CN([C@H]2CCN3c4ccc5c(c4OC[C@H]3C2)C(=O)N(C2CCC(=O)NC2=O)C5=O)CCN1c1ccc(Nc2cc(-c3ccnc(N4CCn5c(cc6c5CC(C)(C)C6)C4=O)c3CO)cn(C)c2=O)nc1.Cl (stereo partly drawn) [Example 17]
3 | 4.63 | 99 | – | Cc1c(-c2cc(Nc3ccc(N4CCN(C5CCN(c6ccc7c(c6)C(=O)N(C6CCC(=O)NC6=O)C7=O)CC5)C[C@@H]4C)cn3)c(=O)n(C)c2)ccnc1N1CCn2c(cc3c2CC(C)(C)C3)C1=O (stereo partly drawn) [Example 10, 5-{4-[(3S)-4-{6-[(2′-{4,4-dimethyl-9-oxo-1,10-diazatricyclo[6.4.0.0^{2,6}]dodeca-2(6),7-dien-10-yl}-1,3′-dimethyl-6-oxo-[3,4′-bipyridin]-5-yl)amino]pyridin-3-yl}-3-methylpiperazin-1-yl]piperidin-1-yl}-2-(2,6-dioxopiperidin-3-yl)isoindole-1,3-dione]
4 | 1.15 | 94 | – | COc1ncc(-c2ccnc(N3CCn4c(cc5c4CC(C)(C)C5)C3=O)c2CO)cc1Nc1ccc(N2CCN(C3CCN(c4ccc5c(c4)C(=O)N(C4CCC(=O)NC4=O)C5=O)CC3)C[C@@H]2C)cn1 (stereo partly drawn) [Example 14, 5-{4-[(3S)-4-{6-[(2′-{4,4-dimethyl-9-oxo-1,10-diazatricyclo[6.4.0.0^{2,6}]dodeca-2(6),7-dien-10-yl}-3′-(hydroxymethyl)-6-methoxy-[3,4′-bipyridin]-5-yl)amino]pyridin-3-yl}-3-methylpiperazin-1-yl]piperidin-1-yl}-2-(2,6-dioxopiperidin-3-yl)isoindole-1,3-dione]
5 | 21.7 | 98 | – | C[C@H]1CN(C2CCN(c3ccc4c(c3)C(=O)N(C3CCC(=O)NC3=O)C4=O)CC2)CCN1c1ccc(Nc2cc(-c3ccnc(N4CCn5c(cc6c5CC(C)(C)C6)C4=O)c3CO)ncn2)nc1 (stereo partly drawn) [Example 15, 5-{4-[(3S)-4-(6-{[6-(2-{4,4-dimethyl-9-oxo-1,10-diazatricyclo[6.4.0.0^{2,6}]dodeca-2(6),7-dien-10-yl}-3-(hydroxymethyl)pyridin-4-yl)pyrimidin-4-yl]amino}pyridin-3-yl)-3-methylpiperazin-1-yl]piperidin-1-yl}-2-(2,6-dioxopiperidin-3-yl)isoindole-1,3-dione]
6 | > 1000 | 7 | – | 5-{4-[(3S)-4-{6-[(6-tert-butyl-2′. {4,4-dimethyl-9-oxo-1,10-diazatricyclo[6.4.0.0^{2,6}]dodeca-2(6),7-dien-10-yl}-3′-(hydroxymethyl)-[3,4′-bipyridin]-5-yl)amino]pyridin-3-yl}-3-methylpiperazin-1-yl]piperidin-1-yl}-2-(2,6-dioxopiperidin-3-yl)isoindole-1,3-dione [Example 12]
7 | 4.4 | 98 | – | C[C@H]1CN(C2CCN(c3ccc4c(c3)C(=O)N(C3CCC(=O)NC3=O)C4=O)CC2)CCN1c1ccc(Nc2cc(-c3ccnc(N4CCn5c(cc6c5CC(C)(C)C6)C4=O)c3CO)ccn2)nc1 (stereo partly drawn) [Example 13, 5-{4-[(3S)-4-{6-[(2′-{4,4-dimethyl-9-oxo-1,10-diazatricyclo[6.4.0.0^{2,6}]dodeca-2(6),7-dien-10-yl}-3′-(hydroxymethyl)-[4,4′-bipyridin]-2-yl)amino]pyridin-3-yl}-3-methylpiperazin-1-yl]piperidin-1-yl}-2-(2,6-dioxopiperidin-3-yl)isoindole-1,3-dione]
8 | 22.8 | – | – | C[C@H]1CN([C@H]2CCN3c4ccc5c(c4OC[C@@H]3C2)C(=O)N(C2CCC(=O)NC2=O)C5=O)CCN1c1ccc(Nc2cc(-c3ccnc(N4CCn5c(cc6c5CC(C)(C)C6)C4=O)c3CO)cn(C)c2=O)nc1.Cl (stereo partly drawn) [Example 18, hydrochloride]
9 | 29.6 | – | 97 | C[C@H]1CN([C@@H]2CCN3c4ccc5c(c4OC[C@H]3C2)C(=O)N(C2CCC(=O)NC2=O)C5=O)CCN1c1ccc(Nc2cc(-c3ccnc(N4CCn5c(cc6c5CC(C)(C)C6)C4=O)c3CO)cn(C)c2=O)nc1 (stereo partly drawn) [Example 16, (5aR,7R)-7-((S)-4-(6-((2′-(7,7-dimethyl-1-oxo-1,3,4,6,7,8-hexahydro-2H-cyclopenta[4,5]pyrrolo[1,2-a]pyrazin-2-yl)-3′-(hydroxymethyl)-1-methyl-6-oxo-1,6-dihydro-[3,4′-bipyridin]-5-yl)amino)pyridin-3-yl)-3-methylpiperazin-1-yl)-2-(2,6-dioxopiperidin-3-yl)-5,5a,6,7,8,9-hexahydro-1H-pyrido[1′,2′:4,5][1,4]oxazino[2,3-e]isoindole-1,3(2H)-dione]
10 | 9.49 | 99 | – | C[C@H]1CN(C2CCN(c3ccc4c(c3)C(=O)N(C3CCC(=O)NC3=O)C4=O)CC2)CCN1c1ccc(Nc2cc(-c3ccnc(N4CCc5c(sc6c5CCCC6)C4=O)c3CO)cn(C)c2=O)nc1 (stereo partly drawn) [Example 11, 2-(2,6-dioxopiperidin-3-yl)-5-{4-[(3S)-4-(6-{[3′-(hydroxymethyl)-1-methyl-6-oxo-2′-{6-oxo-8-thia-5-azatricyclo[7.4.0.0^{2,7}]trideca-1(9),2(7)-dien-5-yl}-[3,4′-bipyridin]-5-yl]amino}pyridin-3-yl)-3-methylpiperazin-1-yl]piperidin-1-yl}isoindole-1,3-dione]
11 | 0.9 | 99 | – | C[C@H]1CN(C2CCN(c3ccc4c(c3)C(=O)N(C3CCC(=O)NC3=O)C4=O)CC2)CCN1c1ccc(Nc2cc(-c3ccnc(N4CCc5c(sc6c5CCCC6)C4=O)c3CO)cn(C)c2=O)nc1 (stereo partly drawn) [Example 9, 2-(2,6-dioxopiperidin-3-yl)-5-{4-[(3S)-4-(6-{[3′-(hydroxymethyl)-1-methyl-6-oxo-2′-{6-oxo-8-thia-5-azatricyclo[7.4.0.0^{2,7}]trideca-1(9),2(7)-dien-5-yl}-[3,4′-bipyridin]-5-yl]amino}pyridin-3-yl)-3-methylpiperazin-1-yl]piperidin-1-yl}isoindole-1,3-dione]
12 | 2.04 | – | 97 | C[C@H]1CN(C2CC(C#Cc3ccc4c(c3)C(=O)N(C3CCC(=O)NC3=O)C4=O)C2)CCN1c1ccc(Nc2cc(-c3ccnc(N4CCn5c(cc6c5CC(C)(C)C6)C4=O)c3CO)cn(C)c2=O)nc1 (stereo partly drawn) [Example 3, 5-((3-((S)-4-(6-((2′-(7,7-dimethyl-1-oxo-1,3,4,6,7,8-hexahydro-2H-cyclopenta[4,5]pyrrolo[1,2-a]pyrazin-2-yl)-3′-(hydroxymethyl)-1-methyl-6-oxo-1,6-dihydro-[3,4′-bipyridin]-5-yl)amino)pyridin-3-yl)-3-methylpiperazin-1-yl)cyclobutyl)ethynyl)-2-(2,6-dioxopiperidin-3-yl)isoindoline-1,3-dione]
13 | – | 93 | – | C[C@H]1CN([C@H]2CCN3c4ccc5c(c4OC[C@@H]3C2)C(=O)N(C2CCC(=O)NC2=O)C5=O)CCN1c1ccc(Nc2cc(-c3ccnc(N4CCn5c(cc6c5CC(C)(C)C6)C4=O)c3CO)cn(C)c2=O)nc1.Cl (stereo partly drawn) [Example 18]

Row | Molecule | DC50 [nM] | Dmax % [%] | Dmax [%]
14 | C[C@H]1CN(C2CN(c3ccc4c(c3)C(=O)N(C3CCC(=O)NC3=O)C4=O)C2)CCN1c1ccc(Nc2cc(-c3ccnc(N4CCn5c(cc6c5CC(C)(C)C6)C4=O)c3CO)cn(C)c2=O)nc1 (stereo partly drawn) [Example 1, 5-{3-[(3S)-4-{6-[(2′-{4,4-dimethyl-9-oxo-1,10-diazatricyclo[6.4.0.0^{2,6}]dodeca-2(6),7-dien-10-yl}-3′-(hydroxymethyl)-1-methyl-6-oxo-[3,4′-bipyridin]-5-yl)amino]pyridin-3-yl}-3-methylpiperazin-1-yl]azetidin-1-yl}-2-(2,6-dioxopiperidin-3-yl)isoindole-1,3-dione] | 1.16 | 100 | –
